From US8809343B2, “Pyrimidine derivative, preparation method and use thereof” (Fudan University, priority 2008, dated 2014)
Where two headings read alike, the source gives them in different places.

Experiments:
[1] = system: HIV-1 IIIB strain; assay: Anti-HIV activity: protection of HIV-infected MT-4 cells from virus-induced cell lesions; format: cell-based
Protocol: (§1) Anti-virus activity of cells in vitro was determined by Rega Institute for Medical of […] Katholleke University, consisting mainly: inhibitory activity towards HIV-infected MT-4 cells and cell toxicity. The method is described below: exert the compound on the HIV-infected ME-4 cells, and determine the protection of the drug on the cell lesions induced by HIV at varied HIV-infection intervals, calculate the half effective concentration IC50, the required concentration that protect 50% of cells from cell lesions induced by HIV. Toxicity determination is carried out in parallel with anti-HIV activity experiments, also in the cultured MT-4 cells, determine the CC50, the concentration that leads 50% of uninfected cells to cell lesions, and calculate the selectivity index SI=CC50/IC50 with the MTT method.
(§2) Anti-HIV activity of various compounds is monitored by the inhibitory efficiency of drugs on the cell lesions induced by HIV. Carry out cell culture with MT-4 cells. The adopted virus strains are HIV-1 IIIB strain and drug-resistant viral strain of […].
(§3) The detailed operation is as follows: the compound is dissolved with DMSO or water and diluted with phosphate buffer saline, 3×10^5 MT-4 cells are cultured with 100 μL various concentrations of compounds for 1 h, then 100 μL suitable virus dilution is added to the compound, and the cells are cultured at 37° C. for 1 h. After being washed for 3 times, the cells are suspended again in the culture media containing or not compounds individually. Subsequently, the cells are transferred to the atmosphere containing 5% CO2 and cultured for 7 days at 37° C., and culture media containing or not compounds are used to replace or supplement the culture solution on the third day after infection. Kinds of culture conditions should be duplicated. The cell lesions caused by virus are monitored with reverse light microscopy everyday. Typically, the virus dilution applied in the present experiments generally cause cell lesion on the fifth day after infection. […] It should be emphasized that, when the compound is poorly water-soluble and can only be dissolved in DMSO, the ratio of DMSO to water is generally below 10% (the final concentration of DMSO in MT-4 cell culture media is smaller than 2%). Because DMSO can influence the anti-virus activity of the tested compounds, blank tests on the solution containing the same concentration of DMSO should be conducted in parallel. Additionally, the final concentration of DMSO is far below the concentration required to influence the replication of HIV-1 in T cells.

[2] = system: MT-4 cells; assay: Cell toxicity in uninfected MT-4 cells (MTT method); format: cell-based
Protocol: as §1, §3

[3] = as above; format: cell-based; conditions: human
Protocol: as §1, §3

[4] = system: drug-resistant viral strain of L103N+Y181C; assay: Anti-HIV activity in MT-4 cells, drug-resistant viral strain; format: cell-based, HIV-1; conditions: MT-4 cells, Table 1; read-out: EC50 103N + 181C
Protocol: as §1, §2, §3

[5] = MT-4 cells, Table 3, read-out: EC50 HIV-1(IIIB)
[6] = HIV-1 IIIB, MT-4 cells, Table 3
[7] = Human immunodeficiency virus 1, IIIB, MT4, read-out: EC50 HIV-1(IIIB)
[8] = MT-4 cells, Table 1, read-out: EC50 HIV-1(IIIB)
[9] = Human immunodeficiency virus 1, IIIB, MT4, MT-4 cells, Table 1, read-out: EC50 HIV-1(IIIB)
[10] = Human immunodeficiency virus 1, IIIB, MT4, MT-4 cells, Table 2, read-out: EC50 WT(IIIB)

## COc1cc(C#N)cc(Cl)c1Oc1nc(Nc2ccc(C#N)cc2)nc2ccccc12 [Compound 48]
[1]; [5]
  EC50: 0.0056 µM
[2]; Table 3
  CC50: > 173 µM

## N#Cc1ccc(Nc2nc(Oc3ccc(Cl)cc3Cl)c3ccccc3n2)cc1 [Compound 37]
[1]; [5]
  EC50: 0.028 µM
[2]; Table 3
  CC50: 114 µM

## Cc1cc(Br)cc(Br)c1Oc1nc(Nc2ccc(C#N)cc2)nc2ccccc12 [Compound 32]
[1]; [6]
  SI (Selectivity index, the ratio of CC50/IC50): 8917
[1]; [7]
  EC50: 0.0176 µM
[3]; uninfected MT-4 cells, Table 3
  CC50 at 7 days: 157 µM

## N#Cc1ccc(Nc2nc(Oc3ccc(F)cc3)c3ccccc3n2)cc1 [Compound 38]
[1]; [5]
  EC50: 0.156 µM
[2]; Table 3
  CC50: 310 µM

## CCCOc1cc(C#N)cc(OCC)c1Oc1nc(Nc2ccc(C#N)cc2)nc2ccccc12 [Compound 47]
[1]; [5]
  EC50: 0.0032 µM
[2]; Table 3
  CC50: > 66.7 µM

## CCOc1cc(C#N)cc(OCC)c1Oc1nc(Nc2ccc(C#N)cc2)nc2ccccc12 [Compound 46]
[1]; [5]
  EC50: 0.0029 µM
[2]; Table 3
  CC50: > 99.3 µM

## CNc1nc(Nc2ccc(C#N)cc2)nc(Oc2ccc3ccccc3c2Br)c1C [Compound 17]
[1]; [8]
  EC50: 0.0154 µM
[4]
  EC50: 6.15 µM
[2]; Table 1
  CC50: 177 µM

## CCOc1cc(C#N)cc(OC)c1Oc1nc(Nc2ccc(C#N)cc2)nc2ccccc12 [Compound 52]
[1]; [5]
  EC50: 0.0026 µM
[2]; Table 3
  CC50: > 130 µM

## Cc1cc(C)c(Oc2nc(Nc3ccc(C#N)cc3)nc3ccccc23)c(C)c1 [Compound 36]
[1]; [5]
  EC50: 0.023 µM
[2]; Table 3
  CC50: > 34.1 µM

## N#Cc1ccc(Nc2nccc(Oc3cc4ccc(C#N)cc4cc3Br)n2)cc1 [Compound 16]
[1]; [8]
  EC50: 0.0011 µM
[4]
  EC50: > 56.5 µM
[2]; Table 1
  CC50: 55.4 µM

## N#Cc1ccc(Nc2nccc(Oc3ccc4cc(Br)ccc4c3Br)n2)cc1 [Compound 13]
[1]; [8]
  EC50: 0.0046 µM
[4]
  EC50: > 50.4 µM
[2]; Table 1
  CC50: 51.1 µM

## COc1cc(C#N)cc(OC(C)C)c1Oc1nc(Nc2ccc(C#N)cc2)nc2ccccc12 [Compound 50]
[1]; [5]
  EC50: 0.0067 µM
[2]; Table 3
  CC50: > 65.8 µM

## N#Cc1ccc(Nc2nccc(Oc3ccc4cc(C#N)ccc4c3)n2)cc1 [Compound 14]
[1]; [8]
  EC50: 0.0033 µM
[4]
  EC50: 6.3 µM
[2]; Table 1
  CC50: 67.8 µM

## Cc1cc2ccccc2cc1Oc1ccnc(Nc2ccc(C#N)cc2)n1 [Compound 11]
[1]; [8]
  EC50: 0.0023 µM
[4]
  EC50: > 70.9 µM
[2]; Table 1
  CC50: 71.2 µM

## Cc1cc(Br)c(Oc2nc(Nc3ccc(C#N)cc3)nc3ccccc23)c(Br)c1 [Compound 35]
[1]; [5]
  EC50: 0.015 µM
[2]; Table 3
  CC50: 23.4 µM

## CC(C)Nc1cccnc1N1CCN(C(=O)c2cc3cc(NS(C)(=O)=O)ccc3[nH]2)CC1 [DLV, Delavirdine, reference compound]
[1]; HIV-1 IIIB, MT-4 cells, Table 1
  SI (Selectivity index, the ratio of CC50/IC50): 12
[1]; [9]
  EC50: 0.072 µM
[1]; [10]
  EC50: 0.072 µM
[1]; WT(IIIB), Table 2
  SI (Selectivity index, the ratio of CC50/IC50): 12
[3]; uninfected MT-4 cells, Table 1
  CC50 at 7 days: 0.86 µM

## COc1nc(Nc2ccc(C#N)cc2)nc(Oc2cccc3cccnc23)c1C [Compound 8]
[1]; [8]
  EC50: 0.0178 µM
[2]; Table 1
  CC50: 31.8 µM

## COc1ccccc1Oc1nc(Nc2ccc(C#N)cc2)nc2ccccc12 [Compound 29]
[1]; [6]
  SI (Selectivity index, the ratio of CC50/IC50): >6186
[1]; [7]
  EC50: 0.03 µM
[3]; uninfected MT-4 cells, Table 3
  CC50 at 7 days: > 186 µM

## COc1cc(C#N)cc(OC)c1Oc1nc(Nc2ccc(C#N)cc2)nc2ccccc12 [Compound 41]
[1]; [5]
  EC50: 0.0022 µM
[2]; Table 3
  CC50: > 93.1 µM

## CCc1c(NC)nc(Nc2ccc(C#N)cc2)nc1Oc1ccc2cc(C#N)ccc2c1Br [Compound 18]
[1]; [8]
  EC50: 0.0062 µM
[4]
  EC50: > 59.5 µM
[2]; Table 1
  CC50: 304 µM

## Cc1cc(C#N)cc(C)c1Oc1nc(Nc2ccc(C#N)cc2)nc2ccccc12 [Compound 45]
[1]; [5]
  EC50: 0.0036 µM
[2]; Table 3
  CC50: > 172 µM

## N#Cc1ccc(Nc2nc(Sc3ccccc3)c3ccccc3n2)cc1 [Compound 44]
[1]; [5]
  EC50: 0.752 µM
[2]; Table 3
  CC50: 494 µM

## Cc1cc(C)c(Oc2nc(Nc3ccc(C#N)cc3)nc3ccc(Cl)cc23)c(C)c1 [Compound 54]
[1]; [5]
  EC50: 0.0018 µM
[2]; Table 3
  CC50: 147 µM

## Cc1cnc(Nc2ccc(C#N)cc2)nc1Oc1cccc2cccnc12 [Compound 5]
[1]; [8]
  EC50: 0.0058 µM
[2]; Table 1
  CC50: 19.9 µM

## N#Cc1ccc(Nc2nc(S(=O)(=O)c3ccccc3)c3ccccc3n2)cc1 [Compound 51]
[1]; [5]
  EC50: 0.589 µM
[2]; Table 3
  CC50: > 215 µM

## COc1ccc(Oc2nc(Nc3ccc(C#N)cc3)nc3ccccc23)cc1 [Compound 28]
[1]; [6]
  SI (Selectivity index, the ratio of CC50/IC50): >1810
[1]; [7]
  EC50: 0.187 µM
[3]; uninfected MT-4 cells, Table 3
  CC50 at 7 days: > 3400 µM

## N#Cc1ccc(Nc2nc(Oc3ccc(Br)cc3)c3ccccc3n2)cc1 [Compound 26]
[1]; [6]
  SI (Selectivity index, the ratio of CC50/IC50): 894
[1]; [7]
  EC50: 0.263 µM
[3]; uninfected MT-4 cells, Table 3
  CC50 at 7 days: 235 µM

## Cc1cn([C@H]2C[C@H](N=[N+]=[N-])[C@@H](CO)O2)c(=O)[nH]c1=O [DDN/AZT, reference compound]
[1]; [5]
  EC50: 0.00517 µM
[2]; Table 3
  CC50: > 93.5 µM

## Cc1ccc(Oc2nc(Nc3ccc(C#N)cc3)nc3ccccc23)cc1 [Compound 31]
[1]; [6]
  SI (Selectivity index, the ratio of CC50/IC50): 8091
[1]; [7]
  EC50: 0.042 µM
[3]; uninfected MT-4 cells, Table 3
  CC50 at 7 days: 340 µM

## N#Cc1ccc(Nc2nc(Oc3c(Br)cc(Br)cc3Br)c3ccccc3n2)cc1 [Compound 34]
[1]; [5]
  EC50: 0.023 µM
[2]; Table 3
  CC50: 71 µM

## N#Cc1ccc(Nc2nc(Oc3ccc(Cl)cc3)c3ccccc3n2)cc1 [Compound 40]
[1]; [5]
  EC50: 0.167 µM
[2]; Table 3
  CC50: > 396 µM

## N#Cc1ccc(Nc2nc(Oc3ccccc3)c3ccccc3n2)cc1 [Compound 30]
[1]; [6]
  SI (Selectivity index, the ratio of CC50/IC50): >411
[1]; [7]
  EC50: 0.887 µM
[3]; uninfected MT-4 cells, Table 3
  CC50 at 7 days: > 365 µM

## CCOc1cc(C#N)cc(Cl)c1Oc1nc(Nc2ccc(C#N)cc2)nc2ccccc12 [Compound 49]
[1]; [5]
  EC50: 0.0059 µM
[2]; Table 3
  CC50: > 594 µM

## Cc1c(Cl)nc(Nc2ccc(C#N)cc2)nc1Oc1cccc2cccnc12 [Compound 6]
[1]; [8]
  EC50: 0.0257 µM
[2]; Table 1
  CC50: 44.7 µM

## Cc1cc(C#N)ccc1Oc1nc(Nc2ccc(C#N)cc2)nc2ccccc12 [Compound 33]
[1]; [5]
  EC50: 0.028 µM
[2]; Table 3
  CC50: > 333 µM

## N#Cc1ccc(Nc2nc(Oc3ccccc3Cl)c3ccccc3n2)cc1 [Compound 39]
[1]; [5]
  EC50: 0.057 µM
[2]; Table 3
  CC50: 343 µM

## Cc1cccc(Oc2nc(Nc3ccc(C#N)cc3)nc3ccccc23)c1 [Compound 27]
[1]; [6]
  SI (Selectivity index, the ratio of CC50/IC50): >563
[1]; [7]
  EC50: 0.625 µM
[3]; uninfected MT-4 cells, Table 3
  CC50 at 7 days: > 352 µM

## Cc1cccc(C)c1Oc1nc(Nc2ccc(C#N)cc2)nc2ccccc12 [Compound 43]
[1]; [5]
  EC50: 0.046 µM
[2]; Table 3
  CC50: > 640 µM

## Cc1ccccc1Oc1nc(Nc2ccc(C#N)cc2)nc2ccccc12 [Compound 25]
[1]; [6]
  SI (Selectivity index, the ratio of CC50/IC50): 1148
[1]; [7]
  EC50: 0.0937 µM
[3]; uninfected MT-4 cells, Table 3
  CC50 at 7 days: 108 µM

## CNc1nc(Nc2ccc(C#N)cc2)nc(Oc2cccc3cccnc23)c1C [Compound 7]
[1]; [8]
  EC50: 0.0158 µM
[2]; Table 1
  CC50: 36.5 µM

## N#Cc1ccc(Nc2nc(Oc3c(Cl)cc(Cl)cc3Cl)c3ccccc3n2)cc1 [Compound 42]
[1]; [5]
  EC50: 0.0035 µM
[2]; Table 3
  CC50: 244 µM

## Cc1ccnc2c1NC(=O)c1cccnc1N2C1CC1 [NVP, nevirapine, reference compound]
[1]; [9]
  EC50: 0.0751 µM
[1]; [10]
  EC50: 0.0751 µM
[3]; Table 1
  CC50 at 7 days: 5.41 µM
[3]; Table 3
  CC50 at 7 days: > 15 µM
